Laboratory results published in ChEMBL document CHEMBL5370674, “Optimization of mTOR Inhibitors Using Property-Based Drug Design and Free-Wilson Analysis for Improved In Vivo Efficacy” (ACS Med Chem Lett, 2023).

Experiments:
[1] = Toxicity in Balb/c Nu/Nu mouse xenografted with human A549 cells assessed as reduction in body weight at 2 to 6 mg/kg, po administrated for 14 days; format: organism-based; parameters: scale not given: the % may be the effect or the level left; conditions: in vivo, 336 h, dose 2-6 mg/kg, time 14 day
A549 [2] = test: Antitumor activity against human A549 cells xenografted in BALB/c Nu/Nu mouse assessed as tumor growth inhibition at 2 mg/kg, po administrated for 14 days relative to control; format: functional; conditions: A549, 336 h, time 14 day, read-out: TGI
[3] = Fraction absorbed in rat at 4 mg/kg, po; format: ADME, organism-based; conditions: in vivo, read-out: Fabs
[4] = Intrinsic clearance in human liver microsomes; format: ADME, Microsome; conditions: read-out: CLH
[5] = Selectivity ratio of IC50 for inhibition of PI3Kalpha (unknown origin) to IC50 for inhibition of recombinant human GST-tagged mTOR (1360 to 2549 residues) expressed in insect cells
[6] = Toxicity in Balb/c Nu/Nu mouse xenografted with human A549 cells assessed as reduction in body weight at 30 mg/kg, po administrated for 14 days; format: organism-based; parameters: scale not given: the % may be the effect or the level left; conditions: in vivo, 336 h, time 14 day
A549 [7] = test: Antitumor activity against human A549 cells xenografted in BALB/c Nu/Nu mouse assessed as tumor growth inhibition at 30 mg/kg, po administrated for 14 days relative to control; format: functional; conditions: A549, 336 h, time 14 day, read-out: TGI
[8] = Apparent intrinsic clearance in human liver microsomes; format: ADME, Microsome; conditions: read-out: CLH(app)
Cytochrome P450 1A2 = target: T1, Cytochrome P450 1A2 (Homo sapiens, UniProt P05177); test: Inhibition of CYP1A2 (unknown origin); format: ADME
T1 sequence (P05177 whole entry): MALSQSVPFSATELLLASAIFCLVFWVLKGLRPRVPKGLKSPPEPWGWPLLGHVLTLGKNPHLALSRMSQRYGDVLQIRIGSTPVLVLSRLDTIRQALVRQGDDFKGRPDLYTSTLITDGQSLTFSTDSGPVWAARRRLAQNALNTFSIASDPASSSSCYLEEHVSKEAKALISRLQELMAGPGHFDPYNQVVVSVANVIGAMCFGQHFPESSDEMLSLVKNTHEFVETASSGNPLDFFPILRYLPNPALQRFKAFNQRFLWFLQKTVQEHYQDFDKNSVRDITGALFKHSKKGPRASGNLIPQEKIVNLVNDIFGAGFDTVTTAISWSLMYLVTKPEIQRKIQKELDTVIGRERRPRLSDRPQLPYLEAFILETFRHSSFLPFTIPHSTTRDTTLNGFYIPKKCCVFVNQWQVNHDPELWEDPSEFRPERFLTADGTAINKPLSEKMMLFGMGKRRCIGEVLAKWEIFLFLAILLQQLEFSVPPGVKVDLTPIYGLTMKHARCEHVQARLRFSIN

Cytochrome P450 2C8 = target: T2, Cytochrome P450 2C8 (Homo sapiens, UniProt P10632); test: Inhibition of CYP2C8 (unknown origin); format: ADME
T2 sequence (P10632 whole entry): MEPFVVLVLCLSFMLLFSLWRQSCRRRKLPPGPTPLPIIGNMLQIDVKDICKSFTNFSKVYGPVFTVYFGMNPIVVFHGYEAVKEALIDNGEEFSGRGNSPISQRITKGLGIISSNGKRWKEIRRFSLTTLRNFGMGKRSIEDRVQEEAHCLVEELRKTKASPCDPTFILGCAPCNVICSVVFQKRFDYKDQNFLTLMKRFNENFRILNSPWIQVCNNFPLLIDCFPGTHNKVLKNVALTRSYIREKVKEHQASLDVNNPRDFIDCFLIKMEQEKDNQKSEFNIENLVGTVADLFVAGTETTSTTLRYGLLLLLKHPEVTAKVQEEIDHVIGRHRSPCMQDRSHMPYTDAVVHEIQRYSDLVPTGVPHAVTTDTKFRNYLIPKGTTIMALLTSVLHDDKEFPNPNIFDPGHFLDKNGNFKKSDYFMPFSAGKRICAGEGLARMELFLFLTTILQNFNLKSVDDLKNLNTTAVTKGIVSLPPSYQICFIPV

Cytochrome P450 3A4 = Cytochrome P450 3A4 (Homo sapiens, UniProt P08684); test: Inhibition of CYP3A4 (unknown origin); format: ADME
Cytochrome P450 2C9 = Cytochrome P450 2C9 (Homo sapiens, UniProt P11712); test: Inhibition of CYP2C9 (unknown origin); format: ADME
Cytochrome P450 2D6 = Cytochrome P450 2D6 (Homo sapiens, UniProt P10635); test: Inhibition of CYP2D6 (unknown origin); format: ADME
Cytochrome P450 2C19 = Cytochrome P450 2C19 (Homo sapiens, UniProt P33261); test: Inhibition of CYP2C19 (unknown origin); format: ADME
Cytochrome P450 2C19, sequence (P33261 whole entry): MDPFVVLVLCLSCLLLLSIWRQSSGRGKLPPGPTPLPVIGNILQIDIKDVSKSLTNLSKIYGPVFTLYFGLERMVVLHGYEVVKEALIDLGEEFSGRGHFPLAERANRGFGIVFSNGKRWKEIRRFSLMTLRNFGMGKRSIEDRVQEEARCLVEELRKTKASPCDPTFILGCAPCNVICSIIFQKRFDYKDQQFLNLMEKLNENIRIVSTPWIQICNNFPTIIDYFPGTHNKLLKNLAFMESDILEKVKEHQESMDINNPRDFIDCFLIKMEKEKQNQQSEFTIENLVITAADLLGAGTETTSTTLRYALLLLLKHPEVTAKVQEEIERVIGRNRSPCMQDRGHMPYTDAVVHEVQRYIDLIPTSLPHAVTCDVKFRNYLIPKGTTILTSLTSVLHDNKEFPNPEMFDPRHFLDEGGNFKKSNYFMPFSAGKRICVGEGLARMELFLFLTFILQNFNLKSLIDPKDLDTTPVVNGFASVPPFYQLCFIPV

Cytochrome P450 2C9, sequence (P11712 whole entry): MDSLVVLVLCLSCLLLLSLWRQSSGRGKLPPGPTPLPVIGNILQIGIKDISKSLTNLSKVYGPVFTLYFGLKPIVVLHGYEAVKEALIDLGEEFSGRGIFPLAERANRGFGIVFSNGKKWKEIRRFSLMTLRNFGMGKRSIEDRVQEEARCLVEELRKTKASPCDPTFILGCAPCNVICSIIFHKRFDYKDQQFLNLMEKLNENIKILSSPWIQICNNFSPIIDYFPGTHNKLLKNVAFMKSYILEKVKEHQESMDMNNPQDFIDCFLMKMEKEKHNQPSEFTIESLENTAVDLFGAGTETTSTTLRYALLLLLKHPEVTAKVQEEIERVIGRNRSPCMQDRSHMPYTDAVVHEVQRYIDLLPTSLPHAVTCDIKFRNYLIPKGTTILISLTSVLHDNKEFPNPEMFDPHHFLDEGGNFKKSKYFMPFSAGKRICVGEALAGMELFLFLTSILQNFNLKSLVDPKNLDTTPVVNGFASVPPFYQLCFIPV
Cytochrome P450 3A4, sequence (P08684 whole entry): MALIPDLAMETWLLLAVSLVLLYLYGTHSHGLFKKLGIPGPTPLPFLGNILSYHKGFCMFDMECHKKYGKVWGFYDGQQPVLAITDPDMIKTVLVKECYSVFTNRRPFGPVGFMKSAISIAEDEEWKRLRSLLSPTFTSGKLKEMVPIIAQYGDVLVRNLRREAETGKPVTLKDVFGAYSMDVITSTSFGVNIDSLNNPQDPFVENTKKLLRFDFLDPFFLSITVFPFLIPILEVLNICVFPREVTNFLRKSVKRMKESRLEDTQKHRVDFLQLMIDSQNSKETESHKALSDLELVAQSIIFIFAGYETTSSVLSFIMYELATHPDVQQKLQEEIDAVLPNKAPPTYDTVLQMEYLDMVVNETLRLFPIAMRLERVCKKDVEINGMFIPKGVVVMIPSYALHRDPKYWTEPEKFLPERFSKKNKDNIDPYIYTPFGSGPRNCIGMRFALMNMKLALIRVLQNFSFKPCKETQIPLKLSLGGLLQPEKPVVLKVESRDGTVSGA
Cytochrome P450 2D6, sequence (P10635 whole entry): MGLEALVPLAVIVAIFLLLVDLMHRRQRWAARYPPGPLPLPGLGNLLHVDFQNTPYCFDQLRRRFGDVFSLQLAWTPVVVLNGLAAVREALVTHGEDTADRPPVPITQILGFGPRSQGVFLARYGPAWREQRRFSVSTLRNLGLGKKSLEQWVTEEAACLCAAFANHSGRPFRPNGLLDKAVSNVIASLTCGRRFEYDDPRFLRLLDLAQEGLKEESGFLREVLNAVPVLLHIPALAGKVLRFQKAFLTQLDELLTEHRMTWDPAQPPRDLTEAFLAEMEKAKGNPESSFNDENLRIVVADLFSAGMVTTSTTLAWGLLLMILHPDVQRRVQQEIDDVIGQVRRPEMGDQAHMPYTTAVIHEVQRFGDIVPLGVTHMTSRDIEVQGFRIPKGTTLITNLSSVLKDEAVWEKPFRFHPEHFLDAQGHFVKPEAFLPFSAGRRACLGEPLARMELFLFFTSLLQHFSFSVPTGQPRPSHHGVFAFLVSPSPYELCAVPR

| SMILES | CLint scaled [8] [mL/min/kg] | also measured |
| --- | --- | --- |
| C[C@@]12COCCN1c1nc(-c3cccc4[nH]ccc34)ncc1N([C@H]1CC[C@H](O)CC1)C2=O |  | Activity [1]: < 20%; inhibition in vivo at 2 mg/kg (A549 [2]): 100%; Fa [3]: 100% |
| CC(F)(F)CN1C(=O)[C@]2(C)COCCN2c2nc(-c3ccc(NC(=O)NC4CC4)cc3)ncc21 |  | CLint scaled [4]: < 10 mL/min/kg; Ratio IC50 [5]: > 50; Activity [6]: < 20%; inhibition in vivo at 30 mg/kg (A549 [7]): 100% |
| Cc1cccc2c(-c3ncc4c(n3)N3CCOC[C@@]3(C)C(=O)N4[C@H]3CC[C@@H](O)CC3)c[nH]c12 | 7 |  |
| C[C@@]12COCCN1c1nc(-c3cnc4[nH]ccc4c3)ncc1N(C1(CCO)CC1)C2=O | 11 |  |
| Cc1cccc2c(-c3ncc4c(n3)N3CCOC[C@@]3(C)C(=O)N4C3(CCCO)CC3)c[nH]c12 | 6 |  |
| Cc1ccc(-c2ncc3c(n2)N2CCOC[C@@]2(C)C(=O)N3[C@H]2CC[C@H](O)CC2)c2cc[nH]c12 | 6 |  |
| C[C@@]12COCCN1c1nc(-c3cnc4[nH]ccc4c3)ncc1N(C1CCOCC1)C2=O | 6 |  |
| C[C@@]12COCCN1c1nc(-c3cccc4[nH]ccc34)ncc1N(C1CCOCC1)C2=O | 10 | IC50 (Cytochrome P450 1A2): > 40 µM; IC50 (Cytochrome P450 2C8): > 40 µM; IC50 (Cytochrome P450 3A4): > 40 µM; IC50 (Cytochrome P450 2C9): > 40 µM; IC50 (Cytochrome P450 2D6): > 40 µM; IC50 (Cytochrome P450 2C19): > 40 µM |
| Cc1ccc(-c2ncc3c(n2)N2CCOC[C@@]2(C)C(=O)N3[C@H]2CC[C@@H](O)CC2)c2cc[nH]c12 | 8 |  |
| C[C@@]12COCCN1c1nc(-c3cccc4[nH]ccc34)ncc1N([C@H]1CC[C@@H](O)CC1)C2=O | 6 |  |
| C[C@@]12COCCN1c1nc(-c3cnc4[nH]ccc4c3)ncc1N(C1CCN(S(C)(=O)=O)CC1)C2=O | 6 |  |
| COCCCN1C(=O)[C@]2(C)COCCN2c2nc(-c3cnc4[nH]ccc4c3)ncc21 | 32 |  |
| Cc1cccc2c(-c3ncc4c(n3)N3CCOC[C@@]3(C)C(=O)N4[C@H]3CC[C@H](O)CC3)c[nH]c12 | 7 |  |
| CC(=O)N1CCC(N2C(=O)[C@]3(C)COCCN3c3nc(-c4cccc5[nH]ccc45)ncc32)CC1 | 6 |  |
| C[C@@]12COCCN1c1nc(-c3cnc4[nH]ccc4c3)ncc1N(C1CCOC1)C2=O (mixture of isomers) | 12 |  |
